Consider 15 molecules from patent US20230390247A1, “BIPHENYL PYRROLIDINE AND BIPHENYL DIHYDROIMIDAZOLE DERIVATIVES FOR INHIBITING ACTIVITY OF 5-HT7 SEROTONIN RECEPTOR, AND PHARMACEUTICAL COMPOSITION COMPRISING SAME AS ACTIVE INGREDIENT” (priority 2020, published 2023).

Holding throughout (type): cell-based
Assay [1] addresses T1, 5-HT7R (Homo sapiens (Human), UniProt P34969). In words: Tango assay (β-arrestin signaling system). Conditions: HTLA cells transfected with 5-HT7R-TCS-tTA construct. On the procedure:
Tango assay was conducted using HTLA cells in order to investigate the activity of the β-arrestin signaling system. Prior to transfection, the culture medium was replaced from DMEM containing 10% FBS, 100 U/mL penicillin, 100 μg/mL streptomycin, 2 μg/mL puromycin and 100 μg/mL hygromycin B to DMEM containing 10% dialyzed FBS, 100 U/mL penicillin and 100 μg/mL streptomycin. 4 hours later, transfection was conducted using 20 μg of a 5-HT7R-TCS-tTA construct (5-HT7R Tango DNA). The transfected cells were prepared on a white, flat, clear-bottom, 384-well plate (Greiner) (15,000 cells/well, 20 μL/well) using DMEM containing 10% dialyzed FBS, 100 U/mL penicillin and 100 μg/mL streptomycin. 6 hours later, after removing the culture medium, the cells were treated with 10 μL of the compound solution. After culturing for 22 hours and removing the culture medium, the cells were treated with 20 μL of a BrightGlo reagent (Promega) diluted in a 1×HBSS, […], pH 7.4 buffer. After measuring luminescence using a Tecan microplate reader (Spark), IC50 value was obtained using the Prism 8.0 program (GraphPad Software).

For assay [2], the target named is T1, 5-HT7R. In words: cAMP assay (luminescence-based, GloSensor). Conditions: HEK293 cells transfected with human 5-HT7R and GloSensor-22F. Here is the method:
For luminescence-based cAMP assay, HEK293 cells were cultured on a 150-mm dish. Prior to transfection, the culture medium was replaced from DMEM containing 10% FBS, 100 U/mL penicillin and 100 μg/mL streptomycin to DMEM containing 10% dialyzed FBS, 100 U/mL penicillin and 100 μg/mL streptomycin. 4 hours later, transfection was conducted using 10 μg of a human 5-HT7R plasmid and 10 μg of a GloSensor-22F plasmid (Promega). The transfected cells were prepared on a white, flat, clear-bottom, 384-well plate (Greiner) (15,000 cells/well, 20 μL/well). 6 hours later, after removing the culture medium, the cells were treated with 20 μL of a 3% Glosensor cAMP reagent containing luciferin in a 1×HBSS, […], pH 7.4 buffer. In addition, the compound of each of the examples was prepared at different concentrations in an assay buffer containing 0.1% bovine serum albumin. 30 minutes later, 10 μL of the compound solution was treated to the cells. After measuring luminescence using a Tecan microplate reader (Spark), IC50 value was obtained using the Prism 8.0 program (GraphPad Software).
For orientation: Changes in cAMP serve as a functional read-out for many G protein-coupled receptors.

Assay [3] concerns the target T1, 5-HT7R. Put plainly: Schild plot for Tango assay. Conditions: compounds at 5 μM, 10 μM and 30 μM with serotonin, read-out: pA2 (converted). Here is the method:
Schild plots were constructed for the Tango assay in order to investigate the effect of the compounds on the activity of the β-arrestin signaling pathway. After culturing cells and replacing the culture medium as described in b) of Test Example 1, the cells were transfected and prepared on a plate. 6 hours later, the cells were treated with 10 μL of the solution of serotonin or the compounds at final concentrations of 5 μM, 10 μM and 30 μM. […] In addition, the pA2 value was obtained using the Excel software. The Schild plots and pA2 values of compound 23 and compound 30 according to the present disclosure are summarized in FIGS. 1A-1B, FIG. 2 and Table 8.

What is called inhibition is the relative decrease from the control value, in per cent. Low values mean a weak effect, high ones a strong effect. What is called IC50 is the concentration that inhibits the measured activity by half. Read a high IC50 as weaker potency in that assay.

T1 sequence (P34969 whole entry): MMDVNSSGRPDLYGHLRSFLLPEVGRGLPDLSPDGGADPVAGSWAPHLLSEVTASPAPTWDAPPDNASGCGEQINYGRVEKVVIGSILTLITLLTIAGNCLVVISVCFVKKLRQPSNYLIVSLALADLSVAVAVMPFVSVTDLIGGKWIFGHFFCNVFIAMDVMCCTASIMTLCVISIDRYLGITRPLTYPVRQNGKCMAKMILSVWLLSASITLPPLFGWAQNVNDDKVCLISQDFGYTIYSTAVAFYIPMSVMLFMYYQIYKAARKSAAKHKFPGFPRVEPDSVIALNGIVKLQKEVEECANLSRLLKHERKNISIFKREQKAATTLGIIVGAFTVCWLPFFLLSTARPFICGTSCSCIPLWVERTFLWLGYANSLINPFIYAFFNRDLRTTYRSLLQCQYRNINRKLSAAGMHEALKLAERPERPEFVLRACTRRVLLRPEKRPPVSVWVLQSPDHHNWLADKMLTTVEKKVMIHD

As to `COc1ccccc1-c1cccc(C2=NCCN2)c1` [Compound 30, 2-(2′-methoxy-[1,1′-biphenyl]-3-yl)-4,5-dihydro-1H-imidazole], the values for the inhibition at 10 µM on 5-HT7R [1] and at 5-HT7R [2] were 40.6% and 94.1%, respectively. The IC50 on 5-HT7R [1] turned out to be 39.8 µM; at 5-HT7R [2], 2.58 µM. The Kb at 5-HT7R [3] was 1.26 µM.
Take `Clc1ccccc1-c1cc(C2=NCCN2)ccc1Cl` [Compound 35, 2-(2′,6-dichloro-[1,1′-biphenyl]-3-yl)-4,5-dihydro-1H-imidazole]: the inhibition at 10 µM against 5-HT7R [1] turned out to be 42%; on 5-HT7R [2], 53.8%. For the same molecule, half-maximal inhibition at 5-HT7R [1] (IC50) required 20.4 µM.
In turn, `Clc1ccc(-c2cc(CN3CCCC3)ccc2Cl)cc1` [Compound 15, 1-((4′,6-dichloro-[1,1′-biphenyl]-3-yl)methyl)pyrrolidine] showed an inhibition at 10 µM against 5-HT7R [1] of 34.3%. On 5-HT7R [2], the inhibition at 10 µM came to 63.8% and the IC50 was found to be 7.15 µM.
Regarding `Cc1ccc(-c2cccc(C3=NCCN3)c2)cc1` [Compound 29, 2-(4′-methyl-[1,1′-biphenyl]-3-yl)-4,5-dihydro-1H-imidazole], the inhibition at 10 µM worked out at 17.2% against 5-HT7R [1] and 35.2% at 5-HT7R [2].
On 5-HT7R [1], `c1ccc(-c2cccc(C3=NCCN3)c2)cc1` [Compound 23, 2-([1,1′-biphenyl]-3-yl)-4,5-dihydro-1H-imidazole] displayed an inhibition at 10 µM of 44.2% and a half-maximal inhibitory concentration (IC50) of 47.9 µM. Further, at 5-HT7R [2], testing at 10 µM gave an inhibition of 83.3% and half-maximal inhibition (IC50) was put at 5.1 µM. In addition, at 5-HT7R [3], the Kb was 5.75 µM.
In the case of `c1ccc(-c2cccc(CN3CCCC3)c2)cc1` [Compound 1, 1-([1,1′-biphenyl]-3-ylmethyl)pyrrolidine], on 5-HT7R [1], the inhibition at 10 µM worked out at 17.5% and half-maximal inhibition (IC50) was put at 22.9 µM. This molecule also registered an inhibition at 10 µM on 5-HT7R [2] of 42.1%.
Take `Cc1ccc(-c2cc(C3=NCCN3)ccc2Cl)cc1` [Compound 40, 2-(6-chloro-4′-methyl-[1,1′-biphenyl]-3-yl)-4,5-dihydro-1H-imidazole]: the inhibition at 10 µM was 31.3% against 5-HT7R [1] and 48.9% against 5-HT7R [2].
At 5-HT7R [1], `COc1cccc(-c2cccc(C3=NCCN3)c2)c1` [Compound 31, 2-(3′-methoxy-[1,1′-biphenyl]-3-yl)-4,5-dihydro-1H-imidazole] had an inhibition at 10 µM of 27.8%. Besides, at 5-HT7R [2], 10 µM produced 72.5% inhibition and inhibition was half-maximal at 5.77 µM (IC50).
Regarding `COc1cccc(OC)c1-c1cccc(C2=NCCN2)c1` [Compound 33, 2-(2′,6′-dimethoxy-[1,1′-biphenyl]-3-v1)-4 1 5-dihydro-1H-imidazole], the inhibition at 10 µM amounted to 14% at 5-HT7R [1] and 32.8% against 5-HT7R [2].
As to `COc1ccccc1-c1cc(C2=NCCN2)ccc1Cl` [Compound 41, 2-(6-chloro-2′-methoxy-[1,1′-biphenyl]-3-yl)-4,5-dihydro-1H-imidazole], the inhibition at 10 µM was 27.7% at 5-HT7R [1] and 44.3% on 5-HT7R [2].
For `Clc1cccc(-c2cc(C3=NCCN3)ccc2Cl)c1` [Compound 36, 2-(3′,6-dichloro-[1,1′-biphenyl]-3-yl)-4,5-dihydro-1H-imidazole], on 5-HT7R [1], testing at 10 µM gave an inhibition of 44.8% and the IC50 was found to be 10 µM. In addition, the inhibition at 10 µM against 5-HT7R [2] was 52.4%.
With `Cc1cccc(-c2cc(C3=NCCN3)ccc2Cl)c1` [Compound 39, 2-(6-chloro-3′-methyl-[1,1′-biphenyl]-3-yl)-4,5-dihydro-1H-imidazole], the inhibition at 10 µM on 5-HT7R [1] amounted to 27%; against 5-HT7R [2], 48.1%.
The corresponding values for `COc1ccc(-c2cc(C3=NCCN3)ccc2Cl)cc1` [Compound 43, 2-(6-chloro-4′-methoxy-[1,1-biphenyl]-3-yl)-4,5-dihydro-1H-imidazole] are 21.5% and 36.8%.
In the case of `COc1ccc(-c2cc(CN3CCCC3)ccc2Cl)cc1` [Compound 21, 1-((6-chloro-4′-methoxy-[1,1′-biphenyl]-3-yl)methyl)pyrrolidine], the results for the inhibition at 10 µM on 5-HT7R [1] and at 5-HT7R [2] were 18.6% and 44.7%, respectively.
As to `Cc1ccc(-c2cccc(CN3CCCC3)c2)cc1` [Compound 7, 1-((4′-methyl-[1,1′-biphenyl]-3-yl)methyl)pyrrolidine], the inhibition at 10 µM on 5-HT7R [1] was found to be 20.6%; against 5-HT7R [2], 32.5%.
